# According to patent US5599807A, “Steroid derivatives” (Senju Pharmaceutical Co., Ltd., priority 1993, dated 1997):
# Structures can show the parent of a compound that is named as a salt.
# System: rat carrageenin-induced pleuritis
# Test: Inhibitory effect on rat carrageenin-induced pleuritis (dye leakage into pleural cavity)
# Type: in vivo, Wistar rats
# Conditions: NFLX-DX 13.4 mg/kg orally 30 min before induction, n = 7
# Procedure: Inhibitory Effect of the Compound on Rat Carrageenin-induced Pleuritis The inhibitory effect of norfloxacin-dexamethasone ester hydrochloride on rat carrageenin-induced pleuritis was evaluated. [Test substance] Norfloxacin-dexamethasone ester hydrochloride (abbreviatedname: NFLX-DX) Wistar rats weighing about 200 g were used. Two groups receiving (1) distilled water (5 ml/kg) and (2) NFLX-DX (13.4 mg/kg), respectively, were provided. Under pentobarbital anesthesia, 0.1 ml of 2% λ-carrageenin was injected into the rat pleura to induce pleuritis. Five hours after the construction of pleuritis, a 5% aqueous solution of Pontamine Sky Blue (2 mg/kg) was injected intravenously, and 20 minutes later the rat was sacrificed and the pleural exudate was collected using a tube. The amount of dye leakage in the pleural cavity (μg/site) was estimated from the amount and absorbance (625 nm) of the exudate sample (ml) by the calibration curve method. The test substance was administered orally (5 ml/kg) 30 minutes before induction of inflammation.
smiles,measurement,setting,value
"CCn1cc(C(=O)OCC(=O)[C@@]2(O)[C@H](C)C[C@H]3[C@@H]4CCC5=CC(=O)C=C[C@]5(C)[C@@]4(F)[C@@H](O)C[C@@]32C)c(=O)c2cc(F)c(N3CCNCC3)cc21 [NFLX-DX, 9-Fluoro-11β,17,21-trihydroxy-16α-methyl-1,4-pregnadiene-3, 20-dione-21-[1-ethyl-6-fluoro-1,4-dihydro-7-(1-piperazinyl)-4-oxo-3-quinolinecarboxylate]hydrochloride]",Dye leakage,"mean ± standard error, * p < 0.01 vs control (distilled water, 74.81 ± 10.70)",20.02 ± 3.80 μg/site
same,% Inhibition,inhibition of dye leakage vs control (distilled water),73.0%
